Experimental data from PMC10743905, “Design, Synthesis, and In Vitro and In Vivo Bioactivity Studies of Hydrazide–Hydrazones of 2,4-Dihydroxybenzoic Acid” (International Journal of Molecular Sciences, 2023).
≈ marks a conversion by molar mass, not a printed value.

Tested on: reference Gram-positive bacteria
Assay: Broth microdilution, summary over the Gram-positive panel
Type: cell-based
Conditions: read-out: MIC
Description: (§1) In vitro antimicrobial activity assays - Methodology
(§2) The examined compounds 1 - 24 were screened in vitro for antibacterial and antifungal activities using the broth microdilution method according to procedure reported earlier by our research group and European Committee on Antimicrobial Susceptibility Testing (EUCAST) and Clinical and Laboratory Standards Institute (CLSI) guidelines against a panel of reference and clinical or saprophytic strains of microorganisms, in-cluding Gram-positive bacteria, Staphylococcus aureus ATCC 43300 (Methicillin Resistant S. aureus – MRSA), Staphylococcus aureus ATCC 29213 (Methicillin Susceptible S. aureus – MSSA), Staphylococcus epidermidis ATCC 12228, Enterococcus faecalis ATCC 29212, Micro-coccus luteus ATCC 10240, Bacillus subtilis ATCC 6633 and Bacillus cereus ATCC 10876), Gram-negative bacteria (Bordetella bronchiseptica ATCC 4617, Escherichia coli ATCC 25922, Klebsiella pneumoniae ATCC 13883, Proteus mirabilis ATCC 12453, Salmonella typhimurium ATCC 14028 and Pseudomonas aeruginosa ATCC 9027) and fungi belonging to yeasts (Can-dida albicans ATCC 10231, Candida albicans ATCC 2091, Candida parapsilosis ATCC 22019, Candida glabrata ATCC 90030 and Candida krusei ATCC 14243). The microorganisms be-longing to ATCC came from American Type Culture Collection, routinely used for the evaluation of antimicrobials. […]
(§3) Samples containing examined compounds were dissolved in dimethyl sulfoxide (DMSO). […]
(§4) Subsequently, the MIC (Minimal Inhibitory Concentration) of the compounds was ex-amined by the microdilution broth method, using their two-fold dilutions in Mueller- […]
(§5) Hinton broth or (for bacteria) and RPMI 1640 broth with MOPS (for fungi) prepared in 96-well polystyrene plates. Final concentrations of the compounds ranged from 1000 to 0.488 µg/ml. Microbial suspensions were prepared in 0.85% NaCl with an optical density of 0.5 McFarland standard. Next each bacterial or fungal suspension was added per each well containing broth and various concentrations of the examined compounds. After incuba-

Q: Which MIC does the source give for O=C(N/N=C/c1ccc(O)c(Br)c1)c1ccc(O)cc1O [Compound 11, N-[(3-bromo-4-hydroxyphenyl)methylidene]-2,4-dihydroxybenzohydrazide] here?
A: 15.6 to 1000 µg/mL (≈ 44.5 to 2850 µM)

Tested on: Candida krusei ATCC 14243
Assay: Broth microdilution MIC/MFC
Type: cell-based
Conditions: Pichia kudriavzevii, ATCC14243, read-out: MIC
Description: as §1
as §2, with “antimicrobials. All the used microbial cultures were first subcultured on nu-trient agar or Sabouraud agar at 35°C for 18-24 h or 30°C for 24-48 h for bacteria and fungi,” for “antimicrobials.”
(§6) The surface of Mueller-Hinton agar (for bacteria) and RPMI 1640 with MOPS (for fungi) were inoculated with the suspensions of bacterial or fungal species. Microbial suspensions were prepared in sterile saline with an optical density of McFarland standard scale 0.5.
(§7) Samples containing examined compounds were dissolved in dimethyl sulfoxide (DMSO).
(§8) Furthermore, bacterial and fungal suspensions were put onto Petri dishes with solid me-dia containing 2 mg/mL of the tested compounds followed incubation at 37°C for 24h and 30°C for 48h for bacteria and fungi, respectively. The inhibition of microbial growth was judged by comparison with a control culture prepared without any sample tested. Ciprof-loxacin, vancomycin, nitrofurantoin, cefuroxime, ampicillin or nystatin (Sigma) were used as a reference antibacterial or antifungal compounds, respectively.
as §4, §5

Q: Which MIC does the source give for O=C(N/N=C/c1ccc(O)c(Br)c1)c1ccc(O)cc1O [Compound 11, N-[(3-bromo-4-hydroxyphenyl)methylidene]-2,4-dihydroxybenzohydrazide] here?
A: > 1000 µg/mL

Tested on: Candida albicans ATCC 2091
Assay: Broth microdilution MIC/MFC
Type: cell-based
Conditions: ATCC2091, read-out: MIC
Description: as §1
as §2, with “antimicrobials. All the used microbial cultures were first subcultured on nu-trient agar or Sabouraud agar at 35°C for 18-24 h or 30°C for 24-48 h for bacteria and fungi,” for “antimicrobials.”
as §6, §7, §8, §4, §5

Q: For O=C(N/N=C/c1ccc(O)c(Br)c1)c1ccc(O)cc1O [Compound 11, N-[(3-bromo-4-hydroxyphenyl)methylidene]-2,4-dihydroxybenzohydrazide], which MIC is on record?
A: > 1000 µg/mL

Tested on: Candida parapsilosis ATCC 22019
Assay: Broth microdilution MIC/MFC
Type: cell-based
Conditions: Lodderomyces parapsilosis, ATCC22019, read-out: MIC
Description: as §1
as §2, with “antimicrobials. All the used microbial cultures were first subcultured on nu-trient agar or Sabouraud agar at 35°C for 18-24 h or 30°C for 24-48 h for bacteria and fungi,” for “antimicrobials.”
as §6, §7, §8, §4, §5

Q: With O=C(N/N=C/c1ccc(O)c(Br)c1)c1ccc(O)cc1O [Compound 11, N-[(3-bromo-4-hydroxyphenyl)methylidene]-2,4-dihydroxybenzohydrazide] as the compound, how does the MIC read?
A: > 1000 µg/mL

Tested on: Candida albicans ATCC 10231
Assay: Broth microdilution MIC/MFC
Type: cell-based
Conditions: ATCC10231, read-out: MIC
Description: as §1
as §2, with “antimicrobials. All the used microbial cultures were first subcultured on nu-trient agar or Sabouraud agar at 35°C for 18-24 h or 30°C for 24-48 h for bacteria and fungi,” for “antimicrobials.”
as §6, §7, §8, §4, §5

Q: For O=C(N/N=C/c1ccc(O)c(Br)c1)c1ccc(O)cc1O [Compound 11, N-[(3-bromo-4-hydroxyphenyl)methylidene]-2,4-dihydroxybenzohydrazide], which MIC is on record?
A: > 1000 µg/mL

Tested on: Candida glabrata ATCC 90030
Assay: Broth microdilution MIC/MFC
Type: cell-based
Conditions: Nakaseomyces glabratus, ATCC90030, read-out: MIC
Description: as §1
as §2, with “antimicrobials. All the used microbial cultures were first subcultured on nu-trient agar or Sabouraud agar at 35°C for 18-24 h or 30°C for 24-48 h for bacteria and fungi,” for “antimicrobials.”
as §6, §7, §8, §4, §5

Q: With O=C(N/N=C/c1ccc(O)c(Br)c1)c1ccc(O)cc1O [Compound 11, N-[(3-bromo-4-hydroxyphenyl)methylidene]-2,4-dihydroxybenzohydrazide] as the compound, how does the MIC read?
A: > 1000 µg/mL

Tested on: not given
Assay: not given
Conditions: not given

Q: Which melting point does the source give for O=C(N/N=C/c1ccc(O)c(Br)c1)c1ccc(O)cc1O [Compound 11, N-[(3-bromo-4-hydroxyphenyl)methylidene]-2,4-dihydroxybenzohydrazide] here?
A: 232 °C

Tested on: Bordetella bronchiseptica ATCC 4617
Assay: Broth microdilution MIC/MBC
Type: cell-based
Conditions: ATCC4617
Description: as §1
as §2, with “antimicrobials. All the used microbial cultures were first subcultured on nu-trient agar or Sabouraud agar at 35°C for 18-24 h or 30°C for 24-48 h for bacteria and fungi,” for “antimicrobials.”
as §6, §7, §8, §4, §5

Q: With O=C(N/N=C/c1ccc(O)c(Br)c1)c1ccc(O)cc1O [Compound 11, N-[(3-bromo-4-hydroxyphenyl)methylidene]-2,4-dihydroxybenzohydrazide] as the compound, how does the MIC read?
A: > 1000 µg/mL

Tested on: Escherichia coli ATCC 25922
Assay: Broth microdilution MIC/MBC
Type: cell-based
Conditions: ATCC25922
Description: as §1
as §2, with “antimicrobials. All the used microbial cultures were first subcultured on nu-trient agar or Sabouraud agar at 35°C for 18-24 h or 30°C for 24-48 h for bacteria and fungi,” for “antimicrobials.”
as §6, §7, §8, §4, §5

Q: Which MIC does the source give for O=C(N/N=C/c1ccc(O)c(Br)c1)c1ccc(O)cc1O [Compound 11, N-[(3-bromo-4-hydroxyphenyl)methylidene]-2,4-dihydroxybenzohydrazide] here?
A: > 1000 µg/mL

Tested on: Enterococcus faecalis ATCC 29212
Assay: Broth microdilution MIC/MBC
Type: cell-based
Conditions: not given
Description: as §1
as §2, with “antimicrobials. All the used microbial cultures were first subcultured on nu-trient agar or Sabouraud agar at 35°C for 18-24 h or 30°C for 24-48 h for bacteria and fungi,” for “antimicrobials.”
as §6, §7, §8, §4, §5

Q: With O=C(N/N=C/c1ccc(O)c(Br)c1)c1ccc(O)cc1O [Compound 11, N-[(3-bromo-4-hydroxyphenyl)methylidene]-2,4-dihydroxybenzohydrazide] as the compound, how does the MBC/MIC read?
A: > 2

Same assay, conditions: ATCC29212, read-out: MBC

Q: For O=C(N/N=C/c1ccc(O)c(Br)c1)c1ccc(O)cc1O [Compound 11, N-[(3-bromo-4-hydroxyphenyl)methylidene]-2,4-dihydroxybenzohydrazide], which MBC is on record?
A: > 1000 µg/mL

Same assay, conditions: ATCC29212, read-out: MIC

Q: Which MIC does the source give for O=C(N/N=C/c1ccc(O)c(Br)c1)c1ccc(O)cc1O [Compound 11, N-[(3-bromo-4-hydroxyphenyl)methylidene]-2,4-dihydroxybenzohydrazide] here?
A: 500 µg/mL (≈ 1420 µM)

Tested on: Bacillus cereus ATCC 10876
Assay: Broth microdilution MIC/MBC
Type: cell-based
Conditions: not given
Description: as §1
as §2, with “antimicrobials. All the used microbial cultures were first subcultured on nu-trient agar or Sabouraud agar at 35°C for 18-24 h or 30°C for 24-48 h for bacteria and fungi,” for “antimicrobials.”
as §6, §7, §8, §4, §5

Q: With O=C(N/N=C/c1ccc(O)c(Br)c1)c1ccc(O)cc1O [Compound 11, N-[(3-bromo-4-hydroxyphenyl)methylidene]-2,4-dihydroxybenzohydrazide] as the compound, how does the MBC/MIC read?
A: > 4

Same assay, conditions: ATCC10876

Q: For O=C(N/N=C/c1ccc(O)c(Br)c1)c1ccc(O)cc1O [Compound 11, N-[(3-bromo-4-hydroxyphenyl)methylidene]-2,4-dihydroxybenzohydrazide], which MBC is on record?
A: > 1000 µg/mL

Same assay, conditions: ATCC10876, read-out: MIC

Q: For O=C(N/N=C/c1ccc(O)c(Br)c1)c1ccc(O)cc1O [Compound 11, N-[(3-bromo-4-hydroxyphenyl)methylidene]-2,4-dihydroxybenzohydrazide], which MIC is on record?
A: 250 µg/mL (≈ 712 µM)

Tested on: Klebsiella pneumoniae ATCC 13883
Assay: Broth microdilution MIC/MBC
Type: cell-based
Conditions: ATCC13883
Description: as §1
as §2, with “antimicrobials. All the used microbial cultures were first subcultured on nu-trient agar or Sabouraud agar at 35°C for 18-24 h or 30°C for 24-48 h for bacteria and fungi,” for “antimicrobials.”
as §6, §7, §8, §4, §5

Q: For O=C(N/N=C/c1ccc(O)c(Br)c1)c1ccc(O)cc1O [Compound 11, N-[(3-bromo-4-hydroxyphenyl)methylidene]-2,4-dihydroxybenzohydrazide], which MIC is on record?
A: > 1000 µg/mL

Tested on: Staphylococcus aureus ATCC 43300
Assay: Broth microdilution MIC/MBC
Type: cell-based
Conditions: Staphylococcus aureus ATCC 43300 (MRSA)
Description: as §1, §2, §3, §4, §5

Q: With O=C(N/N=C/c1ccc(O)c(Br)c1)c1ccc(O)cc1O [Compound 11, N-[(3-bromo-4-hydroxyphenyl)methylidene]-2,4-dihydroxybenzohydrazide] as the compound, how does the MBC read?
A: 1000 µg/mL (≈ 2850 µM)
